Like-named read-outs stand apart in the source and are kept apart here.
Legend:
[1] = test system: red blood cell (RBC) of mice; test: Hemolysis study (HC50); assay type: cell-based
Method: Fresh red blood cell (RBC) of mice was collected by centrifuge with the speed of 500 g for 10 mins until the supernatant is clear. Then, the RBC was diluted with PBS for 20-fold. After adding 50 μL PBS in each vial on 96 plates, 1 mg/mL compounds were serial diluted until reaching the lowest concentration 1.9 μg/mL. Diluted RBC was added into each vial and incubated at 37°C for 1 h. Then, plates were centrifuged at 2,301 g (3,500 rpm) for 10 mins. 30 uL supernatant in each vial was added into 100 μL PBS and read Biotek Synergy HT plate reader at 540 nm. The hemolytic activity was calculated by the formula % hemolysis = (Abssample-AbsPBS) / (AbsTriton-AbsPBS) × 100%. 1% Triton X-100 were used as the positive control and 1 × PBS buffer was used as the negative control.

[2] = test system: vancomycin-resistant E. faecalis (VRE, ATCC 700802); assay type: cell-based; details: lowest concentration that completely inhibits growth, repeated three times
Method: (§1) Having obtained all compounds, their antibacterial efficacy was subsequently evaluated by measuring the minimum inhibitory concentration (MIC). Three significant resistant bacteria, including methicillin-resistant Staphylococcus aureus (MRSA) (ATCC 33591), Staphylococcus epidermidis (MRSE) (RP62A), and vancomycin-resistant E. faecalis (VRE) (ATCC 700802), were chosen for our studies. Meanwhile, hemolytic activity (HC50) was also measured to assess the selectivity of these compounds toward bacteria and blood cells. […] Importantly, HC50 of almost all compounds are equal or more than 250 μg/mL. […] This is consistent with our previous findings that significant hydrophobicity, particularly two long alkyl tails, could form hydrophobic clusters that prevent the formation of amphipathic structures necessary for antimicrobial activity (Li et al., [2014b]; Singh et al., [2018]). […] MICs of 10–14 unveiled that proper bulky hydrophobic groups were beneficial in the design of bactericide. These five compounds have the same (3r,5r,7r)-1-methyladamantane side chain but different tails, including C9, as well as C11 alkyl chain, ethylbenzene, and (3r,5r,7r)-1-methyladamantane. Among them, 10, which had no tail, was the best toward MRSA and MRSE, with the MICs of 5 μg/mL and 2 μg/mL respectively. […] Compounds 7 and 8 also shared a similar trend. It appears that compounds with bulky groups have better activity, due to the lager molecular volume or shorter molecular length of these bulky groups. Therefore, the selection of proper hydrophobic bulky groups when designing HDP-mimicking agents is considerably crucial (Wu et al., [2012]; Teng et al., [2016a]).
(§2) The antimicrobial assay of the compounds was conducted on the following three bacteria strains: methicillin-resistant S.aureus (MRSA, ATCC 33591), methicillin-resistant S. epidermidis (MRSE, RP62A), and vancomycin-resistant E. faecalis (VRE, ATCC 700802). The procedures were followed as reported previously. […] All measurements were repeated at least three times with duplicates each time.

[3] = test system: methicillin-resistant S. aureus (MRSA, ATCC 33591); assay type: cell-based, Staphylococcus aureus; details: lowest concentration that completely inhibits growth, repeated three times
Method: as §1, §2

[4] = test system: methicillin-resistant S. epidermidis (MRSE, RP62A); assay type: cell-based, Staphylococcus epidermidis; details: lowest concentration that completely inhibits growth, repeated three times
Method: as §1, §2

[5] = test system: MRSA; test: Drug resistance study, 20 passages; assay type: cell-based, Staphylococcus aureus
Method: Drug resistance has already been recognized as one of the fastest growing threats all over the world. […] The MIC of compound 2 was determined daily, and then the bacteria suspension with half of the MIC was diluted to 10^6 CFU/mL and incubated with compound to test its activity until 20 passages had been reached.
The experiment was carried out by following our previously reported protocol (Su et al., [2017]; Niu et al., [2018]). The study was conducted for 20 passages.

[6] = test system: MRSA; test: Fluorescence microscopy, DAPI and PI; assay type: cell-based, Staphylococcus aureus; details: 6 μg/mL, 2 h
Method: Experiments of fluorescent microscopy is also a broadly used method to determine the integrity of bacteria membrane. Propidium iodide (PI) and 4′,6-diamidino-2-henylindole (DAPI) are commercially available dyes that stain dead or injured cells with compromised membrane and all cells irrespective of their viability, respectively. The efficacy of compound 2 to interrupt the bacterial membrane was evaluated by these two dyes.
Fluorescent dyes propidium iodide (PI) and 4′,6′-diamidino-2-phenylindole dihydrochloride (DAPI) can be used to distinguish the viable cell from the dead cells. After obtaining the mid-logarithmic phase bacteria solution as above, the bacteria solution was diluted 100 times and mixed with compound 2 at the concentration of 6 μg/mL. Then the mixture was incubated 2 h and centrifuged at 1,690 g (3,000 rpm) for 15 min at 4°C to harvest the cells. After washing with PBS for 3 times, PI (5 μg/mL) and DAPI (10 μg/mL) was used to dye cells 20 min respectively. Controls were carried out without compounds. The bacterial cells were then visualized and analyzed by employing the LEICA DM 2000 optical microscope with an oil-immersion objective (40 ×). The experiment was repeated three times with duplicates each time.

[7] = test system: MRSA; test: Membrane depolarization study, DiSC3(5); assay type: cell-based, Staphylococcus aureus; details: MRSA 10^6 CFU/mL, 1 μM DiSC3(5), compound added after 30 min, ex 622 nm / em 670 nm
Description: HDPs are known to act on the bacterial membrane. As the mimics of HDPs, compounds 1–14 were also expected to kill bacteria through disintegrating the bacterial cell membrane. To this end, 3, 3′- Dipropylthiadicarbocyanine iodide [DiSC3(5)] was used as a fluorogenic probe to detect and measure changes in transmembrane potential. Briefly, fluorescence intensity is very weak when it accumulates on hyperpolarized membranes due to their self-quenching (Niu et al., [2018]). […] This method was used to initially determine the bacterial membrane permeability caused by the compound 2.
Mid log phase MRSA bacteria solution was obtained as above. Then, cells were collected and washed with 5 mM HEPES and 5 mM glucose respectively. 5 mM HEPES:5 mM glucose:100 mM KCl = 1:1:1 was used to resuspended bacteria cells (10^6 CFU/mL). Following that, 200 μL of bacterial suspension and 1 μM DiSC3(5) were included in a 96-well plate, and the fluorescence of the suspension was monitored at room temperature for 30 min at excitation wavelength of 622 nm and emission wavelength of 670 nm. After 30 min, compound 2 was added to the wells and the increased potential was monitored. The experiment was repeated three times with duplicates each time.

[8] = test system: MRSA; test: TEM study; assay type: cell-based, Staphylococcus aureus; details: MRSA 10^6 CFU/mL, 6 μg/mL, 2 h
Method: Transmission electron microscopy (TEM) is a straightforward method to visualize the interruptive effect of compounds on the membrane of bacteria. Mid log phase MRSA without the treatment of compound 2 had intact membrane (Figure 5A).
After being incubated to mid log phase, MRSA(10^6 CFU/mL) was mixed with 6 μg/mL compound 2 for 2 h. Then the bacteria cells were collected and washed with PBS and DI water. Following that, bacteria was resuspended in deionized water. Control bacterial samples were obtained without adding drugs. Above samples were applied to TEM grids by 5 μL bacteria solution, and the grids were allowed to dry in vacuum oven at the temperature of 45°C for 45 seconds. After being dried, TEM images were obtained on a FEI Morgagni 268D TEM with an Olympus MegaView III camera at 60 kV on the microscope. The microscope used AnalySiS software to run the camera.

[9] = test system: MRSA; test: Time-kill kinetics; assay type: cell-based, Staphylococcus aureus
Method: Time-kill kinetic study of compound 2 were investigated. After being incubated from one colony in 4 mL TSB medium overnight at 37 °C while shaking, MRSA was diluted 2,500 times to another fresh 4 mL TSB solution and grew for 6~8 h to mid-logarithmic phase. Suspension [10^6 colony-forming units per milliliter (CFU/mL) according to the read of OD value] was made and then incubated with different concentration of 2 at 37°C for 10 min, 30 min, 60 min, 120 min respectively. The MRSA and drug mixture were diluted 10^2-fold and spread on the TSB agar plates. These plates were incubated at 37°C overnight. The numbers of colonies on each plate were transferred to lg[CFU/mL] and plotted against the incubation time. The experiment was repeated three times with duplicates each time.

[10] = mouse RBC in PBS, 37°C, 1 h, absorbance 540 nm, 1% Triton X-100 positive control

Compound: CCCCCCCCCC(=O)N[C@@H](CCCCN)CN(CC(=O)Nc1ccc(NC(=O)CN(C[C@H](CCCCN)NC(=O)CCCCCCCCC)C(=O)CC23CC4CC(CC(C4)C2)C3)cc1)C(=O)CC12CC3CC(CC(C3)C1)C2 [Compound 11, N,N'-((((1,4-phenylenebis(azanediyl))bis(2-oxoethane-2,1-diyl))bis ((2-((3r,5r,7r)-adamantan-1-yl)acetyl)azanediyl))bis(6-aminohexane-1,2-diyl))bis(decanamide)]
- Hemolysis (HC50) [1, 10]: >250 µg/mL
- MIC VRE [2]: >25 µg/mL
- MIC MRSA [3]: >25 µg/mL
- MIC MRSE [4]: >25 µg/mL

Compound: CCCCCCCCCCCCCCCC(=O)N(CC(=O)Nc1ccc(NC(=O)CN(C[C@@H](N)CCCCN)C(=O)CCCCCCCCCCCCCCC)cc1)C[C@@H](N)CCCCN [Compound 5, N,N'-((1,4-phenylenebis(azanediyl))bis(2-oxoethane-2,1-diyl))bis(N-(2,6-diaminohexyl)palmitamide)]
- Hemolysis (HC50) [1, 10]: >250 µg/mL
- MIC VRE [2]: >25 µg/mL
- MIC MRSA [3]: >25 µg/mL
- MIC MRSE [4]: >25 µg/mL

Compound: CCn1cc(C(=O)O)c(=O)c2cc(F)c(N3CCNCC3)cc21 [norfloxacin, reference compound]
- Increase of MIC after 20 passages ([5]; 20 passages): 10 fold

Compound: CCCCCCCCCCCCCC(=O)N(CC(=O)Nc1ccc(NC(=O)CN(C[C@@H](N)CCCCN)C(=O)CCCCCCCCCCCCC)cc1)C[C@@H](N)CCCCN [Compound 4, N,N'-((1,4-phenylenebis(azanediyl))bis(2-oxoethane-2,1-diyl))bis(N-(2,6-diaminohexyl)tetradecanamide)]
- Hemolysis (HC50) [1, 10]: >250 µg/mL
- MIC VRE [2]: >25 µg/mL
- MIC MRSA [3]: >25 µg/mL
- MIC MRSE [4]: >25 µg/mL

Compound: N-(2-(2-((1s,3s)-adamantan-1-yl)acetamido)-6-aminohexyl)-N-(2-((4-(2-(N-(2-(2-((3r,5r,7r)-adamantan-1-yl)acetamido)-6-aminohexyl) decanamido) acetamido) phenyl) amin)−2-oxoethyl)decanamide [Compound 7]
- Hemolysis (HC50) [1]: 250 µg/mL
- MIC VRE [2]: 20 µg/mL
- MIC MRSA [3]: 10 µg/mL
- MIC MRSE [4]: 2 µg/mL

Compound: CCCCCCCCCC(=O)N(CC(=O)Nc1ccc(NC(=O)CN(C[C@@H](N)CCCCN)C(=O)CCCCCCCCC)cc1)C[C@@H](N)CCCCN [Compound 2, N,N'-((1,4-phenylenebis(azanediyl))bis(2-oxoethane-2,1-diyl))bis(N-(2,6-diaminohexyl)decanamide)]
- DAPI / PI staining of treated MRSA [6]: fluorescence could be detected in both channels
- DiSC3(5) fluorescence intensity after adding compound [7]: fluorescence intensity increased dramatically
- TEM observation of treated MRSA [8]: large amount of cell debris can be detected
- Change of MIC values after 20 passages ([5]; 20 passages at half of the MIC): almost unchanged
- Time-kill result at 6 μg/mL ([9]; MRSA 10^6 CFU/mL, 6 μg/mL, 37°C, up to 120 min): still colonies after 120 mins
- Time in which all bacteria were eradicated ([9]; MRSA 10^6 CFU/mL, 12 μg/mL, 37°C): ≤ 120 min
- Time in which all bacteria were eradicated ([9]; MRSA 10^6 CFU/mL, 24 μg/mL, 37°C): ≤ 120 min
- Time to eradicate MRSA ([9]; abstract statement, concentration not given): ≤ 2 h

Reference: publication PMC7304243, “Dimeric γ-AApeptides With Potent and Selective Antibacterial Activity” (Frontiers in Chemistry, 2020)
